Literature values as cited in patent US8828355B2, “Imaging reporters of transgene expression” (University of Utah Research Foundation, priority 2004, dated 2014).

Tests used:
Maltose binding protein = Maltose binding protein (Escherichia coli, UniProt P0AEX9); conditions: specificity
[1] = target: Mutant maltose binding protein, combination of both these mutations (Escherichia coli, UniProt P0AEX9, DEL198-201/M347A/Q351A/Y202G); conditions: read-out: KD for maltotriose

For OC[C@H]1O[C@@H](O[C@H]2[C@H](O)[C@@H](O)C(O)O[C@@H]2CO)[C@H](O)[C@@H](O)[C@H]1O (stereo partly shown) [lactose], the “binding to maltose binding protein” value (Maltose binding protein) is given as “not to bind”.
In the case of OC[C@H]1O[C@H](O[C@H]2[C@H](O)[C@@H](O)[C@H](O)O[C@@H]2CO)[C@H](O)[C@@H](O)[C@@H]1O [maltose], the “clearance from the body” value (infused) is listed as “rapidly cleared from the body by the kidney”, the distribution after infusion (infused) is listed as “distributed in the extracellular space” and the “safety of intravenous infusion” value (intravenous infusion) is listed as “safe”.
In the case of OC[C@H]1O[C@@](CO)(O[C@H]2O[C@H](CO)[C@@H](O)[C@H](O)[C@H]2O)[C@@H](O)[C@@H]1O [sucrose], the “binding to maltose binding protein” value (Maltose binding protein) is given as “not to bind”.
For OC[C@H]1O[C@H](O[C@H]2O[C@H](CO)[C@@H](O)[C@H](O)[C@H]2O)[C@H](O)[C@@H](O)[C@@H]1O [trehalose], the “binding to maltose binding protein” value (Maltose binding protein) is given as “not to bind”.
For maltotriose, the Kd [1] is given as 6 nM.
